Data published in patent US20140336187A1, “METHODS FOR TREATING LEISHMANIASIS” (HOWARD UNIVERSITY, priority 2011, published 2014).
Where “and” joins values, the source holds several entries; their conditions need not be identical. Identical values can stand only once. Like-named read-outs stand apart in the source and are kept apart here.

Experiments:
L. donovani amastigotes = experiment: Antileishmanial activity on L. donovani amastigotes (resazurin assay); type: cell-based, Leishmania donovani; settings: for IC50: read-out: IC50 (μM) Amastigotes; for SI Values Amastigotes: SI = IC50 (mouse fibroblast) ÷ IC50 (amastigotes)
Procedure: Amastigotes were grown in MAA/20 medium (Amastigote medium consisted of: M199 medium supplemented with 0.5% Tryptone broth, 0.01 mM bathocuproinedisulfonic acid, 0.108 mM L-Cysteine, 15 mM D-glucose, 0.685 mM L-glutamine, and 0.025 mM Hemin and 20% fetal calf serum (FCS) at a pH of 5.5).
Amastigotes were plated at a concentration of 2×10^5 cells/[…] 24 hrs before treatment with various compounds. Amastigotes were treated with dilutions of compounds in 96-well microtitre plates. Dilutions of compounds ranging from 0.03 μM to 44 μM were prepared and added to amastigotes. Amastigotes were exposed to compounds for 48 hrs and were incubated at 37° C. […] After the incubation period, 20 μl Alamar Blue (12.5 mg resazurin dissolved in 100 ml distilled water) (Mikes and Steverding, 2000) were added to each well and plates were incubated for another 2 hrs. […] Decrease of fluorescence (inhibition) was expressed as percentage of the fluorescence of control cultures and was plotted against the concentrations of compounds. The IC50 values were calculated from the sigmoidal inhibition curves. Amphotericin B was used as a reference drug.

[1] = test system: L. donovani promastigotes; experiment: Dose and time-dependent inhibitory effect on L. donovani promastigotes (2, 4, 6, 24 hours exposure); type: cell-based, Leishmania donovani
Procedure: The Leishmanicidal properties of fifteen naphthoquinone compounds (FIG. 1) on L. donovani promastigotes proliferation were assessed by the resazurin cell viability assay. Promastigotes from axenic culture were harvested during the exponential phase of growth (at least 5-day old culture), incubated at a concentration of 2×10^5 cells/200 μl with and without dilutions of compounds in 96-well microtitre plates. Dilutions of compounds covering 0.03 μM to 44 μM were prepared. […] 20 μl Alamar Blue (12.5 mg resazurin dissolved in 100 ml distilled water (Sigma #R7017)) (Mikes and Steverding, 2000) were added to each well and plates were incubated for another 2 hrs. […] Decrease in fluorescence (inhibition), were expressed as percentage of the fluorescence of control cultures and were plotted against the concentrations of compounds. The IC50 values were calculated from the sigmoidal inhibition curves.
A time and dose-dependent inhibitory effect of all 15 imido-substituted naphthoquinone compounds was assessed on their activity on promastigotes of L. donovani. Promastigotes were plated in 96-well plates and incubated in different concentrations of each compound (0.03 to 44 μM), incubated for two hours and viabilities assayed by the resazurin assay. A two hour exposure was assessed by calculation of IC50 values of each compound. Values are means±S.E. (Standard Error).
(§1) A time and dose-dependent inhibitory effect of all 15 imido-substituted naphthoquinone compounds was assessed on their activity on promastigotes of L. donovani. Promastigotes were plated in 96-well plates and incubated in different concentrations of each compound (0.03 to 44 μM), incubated for four hours and cell viabilities assayed by the resazurin assay. A four hour exposure was assessed by calculation of IC50 values of each compound. Values are means±S.E. (Standard Error).
Promastigotes were plated in 96-well plates and incubated in different concentrations of each compound (0.03 to 44 μM), incubated for six hours and cell viabilities assayed by the resazurin assay. A six hour exposure was assessed by calculation of IC50 values of each compound. Values are means±S.E. (Standard error).
as §1, with “incubated for twenty four hours” for “incubated for four hours”, “assay. A twenty four hour” for “assay. A four hour”

L. donovani = experiment: In vivo visceral leishmaniasis BALB/c mouse model: liver and spleen parasite burden (LDUs); parameters: species or system BALB/c mice; settings: for LDUs (Liver): subcutaneous, 4 days from day 7; for LDUs (Liver) / LDUs (Spleen): 14 days post infection, n=2; for Parasite Suppression (%)--Liver (reduction in parasite burden) / Parasite Suppression (%)--Spleen (reduction in parasite burden) / increase in parasite burden (spleen): compared to untreated controls
Procedure: Balb/c mice 10-11 weeks old were infected with L. donovani inoculated subcutaneously (SC) at the base of the tail (maximum 0.2 ml) with 1×10^6 freshly harvested promastigotes. These represented a VL model which has been described previously (Yardley and Croft, 1999). After infection, mice were marked for individual identification and randomly allocated into groups of two. Seven days after infection, a mouse was sacrificed, and parasitic burden assessed based on microscopic enumeration of amastigotes (Leishman donovan bodies) against host cell nuclei on liver and spleen impression smears (Stauber et al., 1958). Blood was collected through cardiac puncture for use in all serum based assays.
Dosing began on the seventh day post-infection for 4 continuous days. […] Dosing was administered subcutaneously at the base of the tail.
It includes the different groups of mice and the concentrations of compounds used for the treatment of infections. A Representation of infections and treatments of BALB/c Mice is in Table 2. All mice were infected with 10^6 log phase promastigotes in PBS. In each group with different concentrations, there were two mice (n=2). […] The positive controls that were infected but were not treated with any drug except PBS, and the negative controls that were not infected with the parasites, but injected with only PBS.
The efficacy of compounds was assessed by microscopically determining the reduction in amastigotes burden Leishman donovan bodies (LDBs) within the liver and spleen. Impression smears were taken 14 days post infection (7 days after the start of treatment). Mice liver and spleen imprints were made by touching a freshly cut surface of the mice liver and spleen many times with a Poly-L-Lysine coated slide. The slides were air dried, fixed in “Diff Quick” fixative for 30 seconds, drained, stained with “Quick Diff” solution II for 30 seconds, drained, and then finally counterstaining with “Diff Quick” solution I for 30 seconds and then drained. Slides were rinsed in tap water to remove excess stain and rapidly dehydrated in absolute alcohol. Slides were examined by light microscopy, using ×1000 oil immersion. LDBs were determined by dividing the number of LDBs/number of cells nuclei x weight of organ in milligrams. This gave the number of “Leishman donovan units” (LDUs).
The purpose of the test was to evaluate splenic and liver parasite burden after treatment with selected compounds. This was done by making imprints and calculating the number of Leishman Donovan Units (LDUs) in cells. LDUs are calculated by counting the number of parasites per cell nuclei (number of amastigotes in cells÷number of cells) multiplied by the weight of the organ in milligrams. […] Effectiveness of compounds in the treatment of VL is expressed as LDU numbers and as percent increases or percent decrease in LDUs. Percent increase in LDU means that the number of parasites increased compared to the untreated controls and percent decrease means that the number of parasites decreased compared to the untreated controls.

[2] = Leishmania donovani, 2 h, read-out: Antileishmanial Activity IC50 (μM) 2 hours
[3] = Leishmania donovani, 4 h, read-out: Antileishmanial Activity IC50 (μM) 4 hours
[4] = Leishmania donovani, 6 h, read-out: Antileishmanial Activity IC50 (μM) 6 hours
[5] = Leishmania donovani, 24 h, read-out: Antileishmanial Activity IC50 (μM) 24 hours
[6] = 20 mg/kg total dose, listed as Amphotericin B

SMILES	IC50 (L. donovani amastigotes; Leishmania donovani, 48 h) [µM]	SI Values Amastigotes (L. donovani amastigotes)	IC50 [1, 2] [µM]	IC50 [1, 3] [µM]	IC50 [1, 4] [µM]	IC50 [1, 5] [µM]	LDUs (Liver) (L. donovani; 5 mg/kg total dose) [LDUs]	LDUs (Spleen) (L. donovani; 5 mg/kg total dose) [LDUs]	Parasite Suppression (%)--Liver (reduction in parasite burden) (L. donovani; 5 mg/kg)	Parasite Suppression (%)--Spleen (reduction in parasite burden) (L. donovani; 5 mg/kg) [%]	LDUs (Liver) (L. donovani; 20 mg/kg total dose)	LDUs (Spleen) (L. donovani; 20 mg/kg total dose) [LDUs]	Parasite Suppression (%)--Liver (reduction in parasite burden) (L. donovani; 20 mg/kg) [%]	Parasite Suppression (%)--Spleen (reduction in parasite burden) (L. donovani; 20 mg/kg) [%]	LDUs (Liver) (L. donovani; 50 mg/kg total dose) [LDUs]	LDUs (Spleen) (L. donovani; 50 mg/kg total dose) [LDUs]	Parasite Suppression (%)--Liver (reduction in parasite burden) (L. donovani; 50 mg/kg) [%]	Parasite Suppression (%)--Spleen (reduction in parasite burden) (L. donovani; 50 mg/kg) [%]	further results
NC1=C(Br)C(=O)c2ccccc2C1=O [IMD8, 2-Amino-3-bromo-1,4-naphthoquinone]	2.07	6858.62±3975.5 and 6858.62	0.021 ± 0.001	64.2 ± 11.8	23100	12 ± 0.8	4752.5±293	585.3±222	56.66% and 55.66%	6.51	3099.9±2197 LDUs	297.8±9.5	44.34	52.44	1869.0±420	391.5±96	81.89	–	–
C[C@@H]1[C@H](O)[C@@H](C)/C=C/C=C/C=C/C=C/C=C/C=C/C=C/[C@H](O[C@@H]2O[C@H](C)[C@@H](O)[C@H](N)[C@@H]2O)C[C@@H]2O[C@](O)(C[C@@H](O)C[C@@H](O)[C@H](O)CC[C@@H](O)C[C@@H](O)CC(=O)O[C@H]1C)C[C@H](O)[C@H]2C(=O)O [Am. B., Amphotericin B, reference compound]	–	–	–	–	–	–	–	–	–	–	5681.0 ± 1868 LDUs	402.3 ± 30	33.47	35.74	–	–	–	–	IC50 (L. donovani amastigotes; L. donovani amastigotes, 48 hrs exposure, resazurin assay, means ± S.E.): 22.3 µM; IC50 ([1]; promastigotes, 6 hours exposure, means ± S.E., read-out: Antileishmanial Activity IC50 (μM) 6 hours): 52 ± 12.2 µM; IC50 ([1]; promastigotes, 24 hours exposure, means ± S.E., read-out: Antileishmanial Activity IC50 (μM) 24 hours): 4.1 ± 0.4 µM; IC50 ([1]; read-out: Antileishmanial Activity IC50 (μM) 2 hours, promastigotes, 2 hours exposure, means ± S.E.): 3.09 ± 2 µM; IC50 ([1]; read-out: Antileishmanial Activity IC50 (μM) 4 hours, promastigotes, 4 hours exposure, means ± S.E.): 4.49 ± 0.3 µM; LDUs (Liver) (L. donovani; [6]): 5823.8 LDUs; LDUs (Spleen) (L. donovani; [6]): 402.0±30 LDUs; Parasite Suppression (%)--Spleen (reduction in parasite burden) (L. donovani; 20 mg/kg, listed as Amphotericin B): 33.0%
O=C1C(Cl)=C(N(C(=O)c2cccc(Cl)c2)C(=O)c2cccc(Cl)c2)C(=O)c2ccccc21 [IMDNQ4, 3-Chloro-N-(3-chlorobenzoyl)-N-(3-chloro-1,4-dioxo-1,4-dihydronaphthalen-2-yl)-benzamide]	1.19	141.26±56.8 and 141.26	3.52 ± 3.6	21.5 ± 9.6	4.11 ± 6.3	3.96 ± 1.3	5823.8±3378	433.3±188	31.79%	30.79	4266.0±6033 LDUs	770.0±608	50.04	0	1003.8±1420	780.3±96	88.24	0	increase in parasite burden (spleen) (L. donovani; 20 mg/kg): 18.7%; increase in parasite burden (spleen) (L. donovani; 50 mg/kg): 19.8%
CCCC(=O)N(C(=O)CCC)C1=C(Cl)C(=O)c2ccccc2C1=O [IMDNQ15]	18.9	0.16±0.09 and 0.16	8.6 ± 0.01	–	116.35 ± 0.07	3.96	2267.5±191	315.0±129	73.44%	49.68	2598.5±89 LDUs and 2598.5 ± 889 LDUs	363.3±210	69.57	41.97	4618.0 ± 1785	213.0±115	45.92	65.97	–
